Patent US9340493B2, “Hydroxamic acid derivatives useful as antibacterial agents” (Pfizer Inc., priority 2008, dated 2016)
Values after ≈ are worked out from the molar mass of the structure shown.

Columns and labels:
[1] = system: Enterobacter aerogenes; test: MIC determination, E. aerogenes; format: cell-based; details: Klebsiella aerogenes; quinolone-resistant, ESBL-expressing clinical isolate; * = arithmetic mean of 2-6 MIC determinations; read-out: MIC (ug/mL) E. aerogenes
Experimental: (§1) MIC determinations: The in vitro antibacterial activity of compounds described in the Examples was evaluated by minimum inhibitory concentration (MIC) testing according to Clinical and Laboratory Standards Institute (CLSI, formerly NCCLS) guidelines. See: Clinical and Laboratory Standards Institute. Methods for Dilution Antimicrobial Susceptibility Tests for Bacteria that Grow Aerobically; Approved Standard-Seventh Edition. CLSI document M7-A7 [ISBN 1-56238-587-9]. Clinical and Laboratory Standards Institute, 940 West Valley Road, Suite 1400, Wayne, Pa. 19087-1898 USA, 2006; also Clinical and Laboratory Standards Institute. Performance Standards for Antimicrobial Susceptibility Testing; Eighteenth Informational Supplement. CLSI document M100-S18 [ISBN1-56238-653-0]. Clinical and Laboratory Standards Institute.
(§2) The following bacterial strains were used:
Enterobacter aerogenes: Quinolone-resistant isolate, expresses extended-spectrum beta-lactamases (ESBL), clinical isolate;

[2] = biological target: T1, Pseudomonas aeruginosa LpxC enzyme (Pseudomonas aeruginosa, UniProt P47205); test: IC50 assay, LpxC enzyme from P. aeruginosa; format: biochemical; details: 0.5 nM enzyme, 25° C., pH 8.0, 20 min; ** = average of 2-8 assays
T1 construct: made in house; host or cells: E. coli
T1 sequence (P47205 1-303): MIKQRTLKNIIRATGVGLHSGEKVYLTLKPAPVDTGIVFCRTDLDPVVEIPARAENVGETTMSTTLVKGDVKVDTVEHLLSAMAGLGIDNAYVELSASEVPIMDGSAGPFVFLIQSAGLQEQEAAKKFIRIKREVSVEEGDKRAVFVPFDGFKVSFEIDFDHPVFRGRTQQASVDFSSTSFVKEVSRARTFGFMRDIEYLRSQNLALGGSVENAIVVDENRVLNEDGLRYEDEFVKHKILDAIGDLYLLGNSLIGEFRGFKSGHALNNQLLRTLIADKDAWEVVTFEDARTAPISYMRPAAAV
Experimental: IC50 assay, LpxC enzyme from P. aeruginosa: IC50 determination in the LpxC enzyme assay was carried out in a similar manner to that described by S. A. Hyland et al., J. Bacteriology 1997, 179, 2029-2037. [See also T. Kline et al., J. Medicinal Chemistry 2002, 45, 3112-3129.] Briefly, Pseudomonas aeruginosa LpxC enzyme (0.5 nM) purified from E. coli-overexpressing bacteria was incubated at 25° C. in a final volume of 25 ul containing 0.5 uM UDP-3-O—(R-3-hydroxydecanoyl)-N—[^3H-acetyl]glucosamine (B. D. Maxwell and J. C. Bronstein, J. Labeled Compounds and Radiopharmaceuticals 2005, 48, 1049-1054), 1 mg/ml BSA, and 50 mM sodium phosphate buffer, pH 8.0 in the presence and absence of inhibitor compound. At the end of 20 min, 90 ul of a pre-mixed 3% suspension of activated charcoal in 100 mM sodium acetate, pH 7.5, was added to stop the enzyme reaction. The contents of the well were transferred to a filter plate and filtered, and an aliquot of the filtrate was quantitated by liquid scintillation spectrometry. A no-enzyme control was subtracted in order to eliminate background counts.

[3] = system: P. aeruginosa UI-18; test: MIC determination, P. aeruginosa UI-18; format: cell-based; details: Pseudomonas aeruginosa, UI18; wild-type; * = arithmetic mean of 2-6 MIC determinations; read-out: MIC (ug/mL) P. aeruginosa UI-18
Experimental: as §1, §2
P. aeruginosa UI-18: Wild-type;

[4] = system: Acinetobacter baumanii/haemolyticus; test: MIC determination, A. baumanii/haemolyticus; format: cell-based; details: Acinetobacter baumannii; multidrug-resistant clinical isolate; * = arithmetic mean of 2-6 MIC determinations; read-out: MIC (ug/mL) A. baumanii/haemolyticus
Experimental: as §1, §2
Acinetobacter baumanii/haemolyticus: Multidrug-resistant clinical isolate;

[5] = system: Klebsiella pneumoniae; test: MIC determination, K. pneumoniae; format: cell-based; details: ciprofloxacin-resistant, ESBL-expressing clinical isolate, * = arithmetic mean of 2-6 MIC determinations, read-out: MIC (ug/mL) K. pneumoniae
Experimental: as §1, §2
Klebsiella pneumoniae: Ciprofloxacin-resistant isolate, expresses extended-spectrum beta-lactamases (ESBL), clinical isolate;

[6] = system: Escherichia coli EC-1; test: MIC determination, E. coli EC-1; format: cell-based; details: EC1, EC-1: VOGEL, * = arithmetic mean of 2-6 MIC determinations, read-out: MIC (ug/mL) E. coli EC-1
Experimental: as §1, §2
Escherichia coli EC-1: VOGEL;

[7] = system: Staphylococcus aureus ATCC 29213; test: MIC determination, S. aureus ATCC 29213; format: cell-based; details: ATCC29213, CLSI quality control reference strain, * = arithmetic mean of 2-6 MIC determinations, read-out: MIC (ug/mL) S. aureus ATCC 29213
Experimental: as §1, §2
Staphylococcus aureus ATCC 29213: CLSI quality control reference strain; and […]

[8] = system: P. aeruginosa PAO280; test: MIC determination, P. aeruginosa PAO280; format: cell-based; details: Pseudomonas aeruginosa, PAO280, read-out: MIC (ug/mL) P. aeruginosa PAO280
Experimental: as §1, §2
Pseudomonas aeruginosa PA0280: lacks efflux pumps MexAB-oprM, MexXY and MexZ

SMILES	MIC [1]	IC50 [2]	MIC [3]	MIC [4]	MIC [5]	MIC [6]	MIC [7]	MIC [8]
Cc1ccc(-c2ccc(CO[C@](C)(C(=O)NO)[C@@H](O)c3cc(CO)on3)cc2)cc1 [Example 37, (2S,3S)-N,3-dihydroxy-3-[5-(hydroxymethyl)isoxazol-3-yl]-2-methyl-2-[(4′-methylbiphenyl-4-yl)methoxy]propanamide]	64 µg/mL (≈ 155 µM)	0.000476 µM	0.75 µg/mL (≈ 1.82 µM)	64 µg/mL (≈ 155 µM)	16 µg/mL (≈ 38.8 µM)	8 µg/mL (≈ 19.4 µM)	> 64 µg/mL	0.015 µg/mL (≈ 0.0364 µM)
Cc1cc([C@H](O)[C@](C)(OCc2ccc(-c3ccccc3)cc2)C(=O)NO)no1 [Example 23, (2S,3S)-2-(biphenyl-4-ylmethoxy)-N,3-dihydroxy-2-methyl-3-(5-methylisoxazol-3-yl)propanamide]	27 µg/mL (≈ 70.6 µM)	0.000376 µM	1.75 µg/mL (≈ 4.58 µM)	4 µg/mL (≈ 10.5 µM)	8 µg/mL (≈ 20.9 µM)	4 µg/mL (≈ 10.5 µM)	> 64 µg/mL	0.015 µg/mL (≈ 0.0392 µM)
Cc1cc([C@H](O)[C@](C)(OCc2ccc(-c3ccc(F)cc3)cc2)C(=O)NO)no1 [Example 38, (2S,3S)-2-[(4′-fluorobiphenyl-4-yl)methoxy]-N,3-dihydroxy-2-methyl-3-(5-methylisoxazol-3-yl)propanamide]	64 µg/mL (≈ 160 µM)	0.000132 µM	1 µg/mL (≈ 2.5 µM)	4 µg/mL (≈ 9.99 µM)	8 µg/mL (≈ 20 µM)	2 µg/mL (≈ 4.99 µM)	> 64 µg/mL	0.015 µg/mL (≈ 0.0375 µM)
CC(OCc1ccc(-c2ccccc2)cc1)(C(=O)NO)C(=O)NCc1cn2ccccc2n1 (stereo not drawn) [Example 83, 2-(biphenyl-4-ylmethoxy)-N-hydroxy-N′-(imidazo[1,2-a]pyridin-2-ylmethyl)-2-methylmalonamide]	> 64 µg/mL	0.00218 µM	8 µg/mL (≈ 18 µM)	64 µg/mL (≈ 144 µM)	64 µg/mL (≈ 144 µM)	16 µg/mL (≈ 36 µM)	> 32 µg/mL	0.125 µg/mL (≈ 0.281 µM)
C[S+]([O-])c1cc([C@H](O)[C@](C)(OCc2ccc(-c3ccc(F)cc3)cc2)C(=O)NO)no1 (stereo partly drawn) [Example 44, (2S,3S)-2-[(4′-fluorobiphenyl-4-yl)methoxy]-N,3-dihydroxy-2-methyl-3-[5-(methylsulfinyl)isoxazol-3-yl]propanamide]	> 64 µg/mL	0.000283 µM	1 µg/mL (≈ 2.23 µM)	32 µg/mL (≈ 71.4 µM)	32 µg/mL (≈ 71.4 µM)	8 µg/mL (≈ 17.8 µM)	> 64 µg/mL	0.015 µg/mL (≈ 0.0334 µM)
Cc1cc(CNC(=O)C(C)(OCc2ccc(-c3cnccn3)cc2)C(=O)NO)no1 (stereo not drawn) [Example 90, N-hydroxy-2-methyl-N′-[(5-methylisoxazol-3-yl)methyl]-2-[(4-pyrazin-2-ylbenzyl)oxy]malonamide]	> 64 µg/mL	0.147 µM	> 64 µg/mL	> 64 µg/mL	> 64 µg/mL	> 64 µg/mL	> 64 µg/mL	4 µg/mL (≈ 9.72 µM)
C[C@@](OCc1ccc(-c2ccc(-c3cnco3)cc2)cc1)(C(=O)NO)[C@@H](O)c1ccc(CO)o1 [Example 46, (2S,3S)-N,3-dihydroxy-3-[5-(hydroxymethyl)-2-furyl]-2-methyl-2-{[4′-(1,3-oxazol-5-yl)biphenyl-4-yl]methoxy}propanamide]	> 8 µg/mL	0.000366 µM	4 µg/mL (≈ 8.61 µM)	> 8 µg/mL	> 8 µg/mL	> 8 µg/mL	> 8 µg/mL	0.25 µg/mL (≈ 0.538 µM)
C[C@@](OCc1ccc(-c2ccccc2)cc1)(C(=O)NO)[C@@H](O)c1nccs1 [Example 20, (2S,3R)-2-(biphenyl-4-ylmethoxy)-N,3-dihydroxy-2-methyl-3-(1,3-thiazol-2-yl)propanamide]	> 64 µg/mL	0.000726 µM	16 µg/mL (≈ 41.6 µM)	> 64 µg/mL	> 64 µg/mL	> 64 µg/mL	> 64 µg/mL	1 µg/mL (≈ 2.6 µM)
Cc1cc(-c2ccc(COC(C)(C(=O)NO)C(=O)NCc3cc(C)on3)cc2)ccn1 (stereo not drawn) [Example 86, N-hydroxy-2-methyl-N′-[(5-methylisoxazol-3-yl)methyl]-2-{[4-(2-methylpyridin-4-yl)benzyl]oxy}malonamide]	> 64 µg/mL	0.00681 µM	16 µg/mL (≈ 37.7 µM)	> 64 µg/mL	> 64 µg/mL	> 64 µg/mL	> 64 µg/mL	0.25 µg/mL (≈ 0.589 µM)
C[C@@](OCc1ccc(-c2ccccc2)cc1)(C(=O)NO)[C@@H](O)c1ccco1 [Example 13, (2S,3S)-2-(biphenyl-4-ylmethoxy)-3-(2-furyl)-N,3-dihydroxy-2-methylpropanamide]	> 32 µg/mL	0.00163 µM	32 µg/mL (≈ 87.1 µM)	> 32 µg/mL	> 32 µg/mL	> 32 µg/mL	> 32 µg/mL	0.5 µg/mL (≈ 1.36 µM)
Cc1cccc(-c2ccc(COC(C)(C(=O)NO)C(=O)NCc3cc(C)on3)cc2)n1 (stereo not drawn) [Example 89, N-hydroxy-2-methyl-N′-[(5-methylisoxazol-3-yl)methyl]-2-{[4-(6-methylpyridin-2-yl)benzyl]oxy}malonamide]	> 64 µg/mL	0.0135 µM	> 64 µg/mL	> 64 µg/mL	> 64 µg/mL	> 64 µg/mL	> 64 µg/mL	1 µg/mL (≈ 2.36 µM)
C[C@@](OCc1ccc(-c2ccccc2)cc1)(C(=O)NO)[C@@H](O)c1cncs1 [Example 21, (2S,3R)-2-(biphenyl-4-ylmethoxy)-N,3-dihydroxy-2-methyl-3-(1,3-thiazol-5-yl)propanamide]	> 64 µg/mL	0.00823 µM	> 64 µg/mL	> 64 µg/mL	> 64 µg/mL	> 64 µg/mL	> 64 µg/mL	4 µg/mL (≈ 10.4 µM)
C[C@@](OCc1ccc(-c2ccccc2)cc1)(C(=O)NO)[C@@H](O)C1CC1 [Example 15, (2S,3S)-2-(biphenyl-4-ylmethoxy)-3-cyclopropyl-N,3-dihydroxy-2-methylpropanamide]	> 64 µg/mL	0.0734 µM	> 64 µg/mL	> 64 µg/mL	> 64 µg/mL	> 64 µg/mL	> 64 µg/mL	32 µg/mL (≈ 93.7 µM)
C[C@@](OCc1ccc(-c2ccc(C(F)(F)F)cn2)cc1)(C(=O)NO)[C@@H](O)c1cc(CO)on1 [Example 41, (2S,3S)-N,3-dihydroxy-3-[5-(hydroxymethyl)isoxazol-3-yl]-2-methyl-2-({4-[5-(trifluoromethyl)pyridin-2-yl]benzyl}oxy)propanamide]	> 64 µg/mL	0.00116 µM	32 µg/mL (≈ 68.5 µM)	> 64 µg/mL	> 64 µg/mL	> 64 µg/mL	> 64 µg/mL	0.25 µg/mL (≈ 0.535 µM)
CCc1ccc(-c2ccc(CO[C@](C)(C(=O)NO)[C@@H](O)c3cc(CO)on3)cc2)cc1 [Example 36, (2S,3S)-2-[(4′-ethylbiphenyl-4-yl)methoxy]-N,3-dihydroxy-4-[5-(hydroxymethyl)isoxazol-3-yl]-2-methylpropanamide]	64 µg/mL (≈ 150 µM)	0.000244 µM	1 µg/mL (≈ 2.34 µM)	32 µg/mL (≈ 75 µM)	16 µg/mL (≈ 37.5 µM)	4 µg/mL (≈ 9.38 µM)	64 µg/mL (≈ 150 µM)	0.03 µg/mL (≈ 0.0703 µM)
